Results as given in ChEMBL document CHEMBL1938230, “6-Position optimization of tricyclic 4-quinolone-based inhibitors of glycogen synthase kinase-3β: discovery of nitrile derivatives with picomolar potency” (Bioorg Med Chem Lett, 2012).
Converted amounts (≈) assume the structure as drawn.

How the values were obtained:
Escherichia coli = assay: Antibacterial activity against Escherichia coli ATCC 8739; assay type: ADME, organism-based
Staphylococcus aureus = assay: Antibacterial activity against Staphylococcus aureus Smith; assay type: ADME, organism-based
[1] = molecular target: Glycogen synthase kinase-3 beta (Homo sapiens, UniProt P49841); assay: Inhibition of GSK3-beta
Chain of Glycogen synthase kinase-3 beta (P49841 whole entry): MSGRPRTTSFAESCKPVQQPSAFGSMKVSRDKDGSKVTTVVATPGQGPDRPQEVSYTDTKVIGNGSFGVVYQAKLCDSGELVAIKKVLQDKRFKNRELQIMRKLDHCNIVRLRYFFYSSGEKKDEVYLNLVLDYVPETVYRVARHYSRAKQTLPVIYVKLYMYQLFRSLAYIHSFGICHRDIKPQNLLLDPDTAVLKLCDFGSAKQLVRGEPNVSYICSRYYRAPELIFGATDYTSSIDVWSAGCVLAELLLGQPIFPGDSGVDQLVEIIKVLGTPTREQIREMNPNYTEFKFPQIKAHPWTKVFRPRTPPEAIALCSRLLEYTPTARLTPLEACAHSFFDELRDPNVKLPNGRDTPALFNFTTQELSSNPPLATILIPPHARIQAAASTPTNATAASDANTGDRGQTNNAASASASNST

| MIC (Escherichia coli) [µM] | MIC (Staphylococcus aureus) [µM] | IC50 [1] [nM] | SMILES |
| --- | --- | --- | --- |
| > 39 | 2 (≈ 0.823 µg/mL) | 40 | C[C@H]1COc2c(NCCCc3ccccc3)c(F)c(N)c3c(=O)c(C(=O)O)cn1c23 |
| > 78 | 78 (≈ 32 µg/mL) | 67 | C[C@H]1COc2c(NCCCc3ccccc3)c(F)c(N)c3c(=O)c(C(N)=O)cn1c23 |
| 16 (≈ 6.42 µg/mL) | 8 (≈ 3.21 µg/mL) | 150 | C[C@H]1COc2c(NCCCn3ccnc3)c(F)c(N)c3c(=O)c(C(=O)O)cn1c23 |
|  |  | 1.4 | C[C@H]1COc2c(NCCCc3ccccc3)c(F)c(N)c3c(=O)c(C#N)cn1c23 |
| 4 (≈ 1.65 µg/mL) | 2 (≈ 0.827 µg/mL) |  | C[C@H]1COc2c(NCCNc3ccccn3)c(F)c(N)c3c(=O)c(C(=O)O)cn1c23 |

More lines, now with the values behind:

| SMILES | MIC (Escherichia coli) [µM] | MIC (Staphylococcus aureus) [µM] | IC50 [1] [nM] |
| --- | --- | --- | --- |
| C[C@H]1COc2c(NCCCn3ccnc3)c(F)c(N)c3c(=O)c(C(N)=O)cn1c23 | > 249 | > 249 | 180 |
| C[C@H]1COc2c(NCCNc3ccccn3)c(F)c(N)c3c(=O)c(C#N)cn1c23 |  |  | 0.57 |
| C[C@H]1COc2c(NCCCc3ccccn3)c(F)c(N)c3c(=O)c(-c4nnn[nH]4)cn1c23 | > 274 | 69 (≈ 30.1 µg/mL) | 2.4 |
| C[C@H]1COc2c(NCCCn3ccnc3)c(F)c(N)c3c(=O)c(-c4nnn[nH]4)cn1c23 | > 257 | > 257 | 20 |
| C[C@H]1COc2c(NCCCc3ccccn3)c(F)c(N)c3c(=O)c(C(=N)NO)cn1c23 |  |  | 71 |
| C[C@H]1COc2c(NCCNc3ccccn3)c(F)c(N)c3c(=O)c(C(N)=O)cn1c23 | > 285 | > 285 | 33 |
| C[C@H]1COc2c(NCCCn3ccnc3)c(F)c(N)c3c(=O)c(C(=N)NO)cn1c23 |  |  | 140 |
| C[C@H]1COc2c(NCCCn3ccnc3)c(F)c(N)c3c(=O)c(C#N)cn1c23 | > 306 | > 306 | 1 |
